Conditions: same protocol, no polymer

Structure (SMILES): C[C@@H]1[C@H](O)[C@@H](C)/C=C/C=C/C=C/C=C/C=C/C=C/C=C/[C@H](O[C@@H]2O[C@H](C)[C@@H](O)[C@H](N)[C@@H]2O)C[C@@H]2O[C@](O)(C[C@@H](O)C[C@@H](O)[C@H](O)CC[C@@H](O)C[C@@H](O)CC(=O)O[C@H]1C)C[C@H](O)[C@H]2C(=O)O [Amphotericin B]
- water solubility of Amphotericin B: approx. 0.4 μg/mL
